Results taken from PubChem BioAssay AID1259407 (Chemical Carcinogenesis Research Information System (CCRIS), 2018).
Calls of active or inactive are those of the source. The rule behind the calls is not given here.

System: CCRIS mutagenicity, Ames/micronucleus/aberration tests
Test: CCRIS mutagenicity studies

CNc1ccccc1
mutagenic call (Test System: AMES SALMONELLA TYPHIMURIUM, Strain/Indicator: TA97, Metabolic Activation: HAMSTER, LIVER, S-9, AROCLOR 1254 (10%), Method: PREINCUBATION): inactive; negative | mutagenic call (Test System: AMES SALMONELLA TYPHIMURIUM, Strain/Indicator: TA97, Metabolic Activation: HAMSTER, LIVER, S-9, AROCLOR 1254 (30%), Method: PREINCUBATION): inactive; negative | mutagenic call (Test System: AMES SALMONELLA TYPHIMURIUM, Strain/Indicator: TA97, Metabolic Activation: NONE, Method: PREINCUBATION): inactive; negative | mutagenic call (Test System: AMES SALMONELLA TYPHIMURIUM, Strain/Indicator: TA97, Metabolic Activation: RAT, LIVER, S-9, AROCLOR 1254 (10%), Method: PREINCUBATION): inactive; negative | mutagenic call (Test System: AMES SALMONELLA TYPHIMURIUM, Strain/Indicator: TA97, Metabolic Activation: RAT, LIVER, S-9, AROCLOR 1254 (30%), Method: PREINCUBATION): inactive; negative | mutagenic call (Test System: AMES SALMONELLA TYPHIMURIUM, Strain/Indicator: TA98, Metabolic Activation: HAMSTER, LIVER, S-9, AROCLOR 1254 (10%), Method: PREINCUBATION): inactive; negative | mutagenic call (Test System: AMES SALMONELLA TYPHIMURIUM, Strain/Indicator: TA98, Metabolic Activation: HAMSTER, LIVER, S-9, AROCLOR 1254 (30%), Method: PREINCUBATION): inactive; negative | mutagenic call (Test System: AMES SALMONELLA TYPHIMURIUM, Strain/Indicator: TA98, Metabolic Activation: HAMSTER, LIVER, S-9, SODIUM PHENOBARBITAL AND 5,6-BENZOFLAVONE, Method: PREINCUBATION): inactive; negative | mutagenic call (Test System: AMES SALMONELLA TYPHIMURIUM, Strain/Indicator: TA98, Metabolic Activation: NONE, Method: PREINCUBATION): inactive; negative | mutagenic call (Test System: AMES SALMONELLA TYPHIMURIUM, Strain/Indicator: TA98, Metabolic Activation: RAT, LIVER, S-9, AROCLOR 1254 (10 OR 30%), Method: PREINCUBATION): inactive; negative | mutagenic call (Test System: AMES SALMONELLA TYPHIMURIUM, Strain/Indicator: TA100, Metabolic Activation: HAMSTER, LIVER, S-9, AROCLOR 1254 (10%), Method: PREINCUBATION): inactive; negative | mutagenic call (Test System: AMES SALMONELLA TYPHIMURIUM, Strain/Indicator: TA100, Metabolic Activation: HAMSTER, LIVER, S-9, AROCLOR 1254 (30%), Method: PREINCUBATION): inactive; negative | mutagenic call (Test System: AMES SALMONELLA TYPHIMURIUM, Strain/Indicator: TA100, Metabolic Activation: HAMSTER, LIVER, S-9, SODIUM PHENOBARBITAL AND 5,6-BENZOFLAVONE, Method: PREINCUBATION): inactive; negative | mutagenic call (Test System: AMES SALMONELLA TYPHIMURIUM, Strain/Indicator: TA100, Metabolic Activation: NONE, Method: PREINCUBATION): inactive; negative | mutagenic call (Test System: AMES SALMONELLA TYPHIMURIUM, Strain/Indicator: TA100, Metabolic Activation: RAT, LIVER, S-9, AROCLOR 1254 (10 OR 30%), Method: PREINCUBATION): inactive; negative | mutagenic call (Test System: AMES SALMONELLA TYPHIMURIUM, Strain/Indicator: TA102, Metabolic Activation: HAMSTER, LIVER, S-9, SODIUM PHENOBARBITAL AND 5,6-BENZOFLAVONE, Method: PREINCUBATION): inactive; negative | mutagenic call (Test System: AMES SALMONELLA TYPHIMURIUM, Strain/Indicator: TA102, Metabolic Activation: NONE, Method: PREINCUBATION): inactive; negative | mutagenic call (Test System: AMES SALMONELLA TYPHIMURIUM, Strain/Indicator: TA104, Metabolic Activation: HAMSTER, LIVER, S-9, SODIUM PHENOBARBITAL AND 5,6-BENZOFLAVONE, Method: PREINCUBATION): inactive; negative | mutagenic call (Test System: AMES SALMONELLA TYPHIMURIUM, Strain/Indicator: TA104, Metabolic Activation: NONE, Method: PREINCUBATION): inactive; negative | mutagenic call (Test System: AMES SALMONELLA TYPHIMURIUM, Strain/Indicator: TA1535, Metabolic Activation: HAMSTER, LIVER, S-9, AROCLOR 1254 (10%), Method: PREINCUBATION): inactive; negative | mutagenic call (Test System: AMES SALMONELLA TYPHIMURIUM, Strain/Indicator: TA1535, Metabolic Activation: HAMSTER, LIVER, S-9, AROCLOR 1254 (30%), Method: PREINCUBATION): inactive; negative | mutagenic call (Test System: AMES SALMONELLA TYPHIMURIUM, Strain/Indicator: TA1535, Metabolic Activation: HAMSTER, LIVER, S-9, SODIUM PHENOBARBITAL AND 5,6-BENZOFLAVONE, Method: PREINCUBATION): inactive; negative | mutagenic call (Test System: AMES SALMONELLA TYPHIMURIUM, Strain/Indicator: TA1535, Metabolic Activation: NONE, Method: PREINCUBATION): inactive; negative | mutagenic call (Test System: AMES SALMONELLA TYPHIMURIUM, Strain/Indicator: TA1535, Metabolic Activation: RAT, LIVER, S-9, AROCLOR 1254 (10 OR 30%), Method: PREINCUBATION): inactive; negative | mutagenic call (Test System: AMES SALMONELLA TYPHIMURIUM, Strain/Indicator: TA1537, Metabolic Activation: HAMSTER, LIVER, S-9, SODIUM PHENOBARBITAL AND 5,6-BENZOFLAVONE, Method: PREINCUBATION): inactive; negative | mutagenic call (Test System: AMES SALMONELLA TYPHIMURIUM, Strain/Indicator: TA1537, Metabolic Activation: NONE, Method: PREINCUBATION): inactive; negative | mutagenic call (Test System: E. COLI, Strain/Indicator: WP2UVRA/PKM101, Metabolic Activation: HAMSTER, LIVER, S-9, SODIUM PHENOBARBITAL AND 5,6-BENZOFLAVONE, Method: PREINCUBATION): inactive; negative | mutagenic call (Test System: E. COLI, Strain/Indicator: WP2UVRA/PKM101, Metabolic Activation: NONE, Method: PREINCUBATION): inactive; negative | mutagenic call (Test System: E. COLI, Strain/Indicator: WP2UVRA, Metabolic Activation: HAMSTER, LIVER, S-9, SODIUM PHENOBARBITAL AND 5,6-BENZOFLAVONE, Method: PREINCUBATION): inactive; negative | mutagenic call (Test System: E. COLI, Strain/Indicator: WP2UVRA, Metabolic Activation: NONE, Method: PREINCUBATION): inactive; negative | mutagenic call (Test System: UDS RODENT HEPATOCYTES, Strain/Indicator: THY INCORP (NON-S-PHASE), Metabolic Activation: NONE, Method: AUTORADIOGRAPHY): inactive; negative

CCBr
mutagenic call (End Point: IN VITRO CHROMOSOMAL ABERRATIONS, Test System: CHO CELLS, Metabolic Activation: NONE): inactive; negative | mutagenic call (End Point: IN VITRO CHROMOSOMAL ABERRATIONS, Test System: CHO CELLS, Metabolic Activation: RAT, LIVER, S-9, AROCLOR 1254): inactive; negative | mutagenic call (End Point: In vitro Micronucleus, Test System: Chinese Hamster Ovary (CHO-WBL) cells, Metabolic Activation: None): inactive; negative | mutagenic call (Test System: AMES SALMONELLA TYPHIMURIUM, Strain/Indicator: TA97, Metabolic Activation: NONE, Method: STANDARD PLATE): active; positive | mutagenic call (Test System: AMES SALMONELLA TYPHIMURIUM, Strain/Indicator: TA97, Metabolic Activation: RAT, LIVER, S-9, AROCLOR 1254, Method: STANDARD PLATE): active; positive | mutagenic call (Test System: AMES SALMONELLA TYPHIMURIUM, Strain/Indicator: TA98, Metabolic Activation: HAMSTER, LIVER, S-9, AROCLOR 1254, Method: DESICCATOR): inactive; negative | mutagenic call (Test System: AMES SALMONELLA TYPHIMURIUM, Strain/Indicator: TA98, Metabolic Activation: NONE, Method: DESICCATOR): inactive; negative | mutagenic call (Test System: AMES SALMONELLA TYPHIMURIUM, Strain/Indicator: TA98, Metabolic Activation: NONE, Method: STANDARD PLATE): inactive; negative | mutagenic call (Test System: AMES SALMONELLA TYPHIMURIUM, Strain/Indicator: TA98, Metabolic Activation: RAT, LIVER, S-9, AROCLOR 1254, Method: DESICCATOR): inactive; negative | mutagenic call (Test System: AMES SALMONELLA TYPHIMURIUM, Strain/Indicator: TA98, Metabolic Activation: RAT, LIVER, S-9, AROCLOR 1254, Method: STANDARD PLATE): active; positive | mutagenic call (Test System: AMES SALMONELLA TYPHIMURIUM, Strain/Indicator: TA100, Metabolic Activation: HAMSTER, LIVER, S-9, AROCLOR 1254, Method: DESICCATOR): active; positive | mutagenic call (Test System: AMES SALMONELLA TYPHIMURIUM, Strain/Indicator: TA100, Metabolic Activation: NONE, Method: DESICCATOR): active; positive | mutagenic call (Test System: AMES SALMONELLA TYPHIMURIUM, Strain/Indicator: TA100, Metabolic Activation: NONE, Method: STANDARD PLATE): inactive; negative | mutagenic call (Test System: AMES SALMONELLA TYPHIMURIUM, Strain/Indicator: TA100, Metabolic Activation: RAT, LIVER, S-9, AROCLOR 1254, Method: DESICCATOR): active; positive | mutagenic call (Test System: AMES SALMONELLA TYPHIMURIUM, Strain/Indicator: TA100, Metabolic Activation: RAT, LIVER, S-9, AROCLOR 1254, Method: STANDARD PLATE): active; positive | mutagenic call (Test System: AMES SALMONELLA TYPHIMURIUM, Strain/Indicator: TA104, Metabolic Activation: NONE, Method: STANDARD PLATE): inactive; negative | mutagenic call (Test System: AMES SALMONELLA TYPHIMURIUM, Strain/Indicator: TA104, Metabolic Activation: RAT, LIVER, S-9, AROCLOR 1254, Method: STANDARD PLATE): active; positive
